Article PMC7759686, “Pharmacokinetics and Immunological Effects of Romidepsin in Rhesus Macaques” (Frontiers in Immunology, 2020)

Assays:
[1] = test system: CD4+ and CD8+ T cells of PBMCs; test: In vitro RMD impact on homing markers of PBMCs; format: cell-based, rhesus macaques; details: for CCR5 expression on CD8+ T cells: untreated 7%; for CCR4 expression on CD8+ T cells: baseline 6%, untreated 29%; for α4β7 expression on CD8+ T cells: baseline 7%; for CCR9 expression on CD4+ T cells: baseline 2%; for CCR9 expression on CD4+ T cells / CCR9 expression on CD8+ T cells: untreated 3%
Protocol: To assess the RMD impact on the expression of cellular and homing markers, fresh PBMCs collected from 3 SIV-naïve RMs were subjected to either no RMD treatment or escalating doses of RMD (2, 10, and 20 ng/ml). The PBMCs were incubated with RMD in RPMI1640 supplemented with 1% Penicillin/Streptomycin, 1% HEPES buffer, 1% L-glutamine, and 5% heat-inactivated bovine calf serum for 0, 1, 2, or 5 days. PBMCs were then stained with CD3-V500, CD4-Alexa Flour 700 (L200), CD8-PE-CF594, CCR4-PE-Cy7 (1G1), CCR5-APC (3AP), CCR7-PE (3D12), CCR9-FITC (112509) (R&D Systems, Minneapolis, MN, USA), β7-PE-Cy5 (FIB504), and LIVE/DEAD Fixable Blue Dead Cell Stain Kit (Thermo Fisher Scientific); all antibodies were from BD Biosciences unless otherwise noted. Stained PBMCs were acquired on a LSR-II and data were analyzed with FlowJo software (TreeStar).

[2] = Serum chemistries (hepato-, nephro- and general toxicity markers); format: in vivo, rhesus macaques (Macaca mulatta); details: 3 RMs, 7 mg/m^2
Description: (§1) Complete blood counts (CBCs) and serum chemistries were monitored in the collected samples from both the RMD-treated RMs and control RMs by either the Marshfield Laboratories (Cleveland, OH), IDEXX Reference Laboratories (IDEXX Laboratories, Inc, Westbrook, ME) or in house, using a ProCyte Hematology Analyzer (IDEXX Laboratories, Inc).

[3] = test system: circulating lymphocytes, T cells, B cells and neutrophils; test: Immune cell counts in blood (CBC, TruCount flow cytometry); format: in vivo, rhesus macaques (Macaca mulatta); details: for CD8+ T cells in blood: baseline 1,047; for CD4+ T cells in blood: baseline 2,518; for total circulating lymphocytes: baseline 5,050, 3 RMs, 7 mg/m^2
Protocol: Figure 1 illustrates the sampling schedule. […] Intestinal biopsies were taken at 13 days prior to infusion; intestinal resections were taken at 30 days before infusion and 1 day postinfusion; LNs were collected at 30 and 13 days prior to infusion, 6 h postinfusion, and 1 and 7 days postinfusion. The samples collected during the first round of RMD treatment were used for immune population dynamics and functionality.
as §1
(§2) Whole blood was stained to monitor the impact of RMD on the immune cell populations. TruCount was used to determine absolute counts of CD3^+, CD4^+, CD8^+ T cells and CD20^+ B cells as described ([51]–[53]). Fifty microliters of whole blood were stained with antibodies against CD3-V450, CD4-APC, CD20-APC-H7, and CD45-PerCP in TruCount tubes (BD Biosciences, Franklin Lakes, NJ, USA) with a set number of fluorescent beads as internal standards. CD8^+ T cell counts were assessed through the ratio of CD8^+ to CD3^+ T cells. Whole blood was also stained with combinations of the following fluorescently labeled antibodies: CD3-V450 (SP34-2), CD4-APC (L200), CD8-PE-CF594 (RPA-T8), CD14-PE-Cy7 (M5E2), CD38-FITC (AT-1) (Stemcell, Vancouver, BC, CA), CD20-APC-H7 (2H7), CD69-APC-Cy7 (FN50), CD95-FITC (DX2), CCR5-PE (3A9), Annexin V-FITC, HLA-DR-PE-Cy7 (L243), NKG2A-PE (Z199) (Beckman Coulter, Pasadena, CA), Strepavidin-Alexa Fluor 750 (Life Technologies, Carlsbad, CA), Biotin-CCR7 (eBioscience, San Diego, CA), LIVE/DEAD Fixable Blue Dead Cell Stain Kit (Thermo Fisher Scientific); all antibodies were from BD Biosciences unless otherwise noted. For Ki-67-PE (B56) intracellular staining, cells were fixed and permeabilized prior to Ki-67 staining. Data were acquired with a LSR-II flow cytometer (BD Biosciences) or Fortessa flow cytometer (BD Biosciences) and analyzed with FlowJo software 10.7.0 (Treestar, Ashland, OR), as described ([51], [54]).

[4] = test system: peripheral CD4+ and CD8+ T cells; test: Apoptosis and activation of peripheral T cells (whole blood flow cytometry); format: in vivo, rhesus macaques (Macaca mulatta); details: n = 3
Protocol: as §2

[5] = penetration into CSF; cited from earlier work
Protocol: The brain is also a key HIV reservoir ([71]–[73]). […] At 2 h postinfusion, the plasma concentration was 19.9 ng/ml (37.6nM). Assuming a 2% penetration, this would h ...

[6] = 3 days postinfusion, baseline 22
[7] = 4 days postinfusion, baseline 22

C/C=C1\NC(=O)[C@H]2CSSCC/C=C/[C@H](CC(=O)N[C@H](C(C)C)C(=O)N2)OC(=O)[C@H](C(C)C)NC1=O [RMD, romidepsin]
CCR5 expression on CD4+ T cells ([1]; 2 ng/ml RMD, day 5, baseline 3%, untreated 2%, p > 0.05): 1% | CCR5 expression on CD8+ T cells ([1]; 2 ng/ml RMD, day 5, baseline 4%, p > 0.05): 59% | CCR4 expression on CD8+ T cells ([1]; 2 ng/ml RMD, day 5, p > 0.05): 73% | α4β7 expression on CD8+ T cells ([1]; 2 ng/ml RMD, day 5, p > 0.05): 59% | CCR7 expression on CD8+ T cells ([1]; 10 ng/ml RMD, day 1 (peak), baseline 3%): 6% | α4β7 expression on CD4+ T cells ([1]; 10 ng/ml RMD, day 1, baseline 8%): 9% | α4β7 expression on CD4+ T cells ([1]; 10 ng/ml RMD, day 2, baseline 8%): 16% | CCR9 expression on CD4+ T cells ([1]; 10 ng/ml RMD, day 5 (peak), p > 0.05): 14% | CCR5 expression on CD4+ T cells ([1]; 10 ng/ml RMD, day 5, baseline 3%, untreated 2%, p > 0.05): < 1% | CCR9 expression on CD8+ T cells ([1]; 10 ng/ml RMD, day 5, baseline 4%, p > 0.05): 8% | CCR5 expression on CD8+ T cells ([1]; 10 ng/ml RMD, day 5, baseline 4%, p < 0.05): 93% | CCR4 expression on CD8+ T cells ([1]; 10 ng/ml RMD, day 5, p < 0.05): 93% | α4β7 expression on CD8+ T cells ([1]; 10 ng/ml RMD, day 5, p < 0.05): 95% | α4β7 expression on CD4+ T cells ([1]; 10 ng/ml RMD, day 5, untreated 7.5%): 2% | CCR7 expression on CD8+ T cells ([1]; 20 ng/ml RMD, day 1 (peak), baseline 3%): 6.2% | α4β7 expression on CD4+ T cells ([1]; 20 ng/ml RMD, day 1, baseline 8%): 10% | α4β7 expression on CD4+ T cells ([1]; 20 ng/ml RMD, day 2, baseline 8%): 15% | CCR9 expression on CD4+ T cells ([1]; 20 ng/ml RMD, day 5 (peak), p > 0.05): 13% | CCR7 expression on CD4+ T cells ([1]; 20 ng/ml RMD, day 5 (peak), baseline 4%, untreated 2%, p > 0.05): 9% | CCR5 expression on CD4+ T cells ([1]; 20 ng/ml RMD, day 5, baseline 3%, untreated 2%, p > 0.05): < 1% | CCR9 expression on CD8+ T cells ([1]; 20 ng/ml RMD, day 5, baseline 4%, p > 0.05): 10% | CCR5 expression on CD8+ T cells ([1]; 20 ng/ml RMD, day 5, baseline 4%, p < 0.05): 90% | CCR4 expression on CD8+ T cells ([1]; 20 ng/ml RMD, day 5, p < 0.05): 90% | α4β7 expression on CD8+ T cells ([1]; 20 ng/ml RMD, day 5, p < 0.05): 91% | CCR7 expression on CD8+ T cells ([1]; 20 ng/ml RMD, day 5, untreated 2%): 5% | α4β7 expression on CD4+ T cells ([1]; 20 ng/ml RMD, day 5, untreated 7.5%): 3% | CCR4 expression on CD4+ T cells ([1]; 2, 10, 20 ng/ml RMD, up to day 5): mostly unchanged | alanine aminotransferase (ALT) ([2]; 18 h postinfusion, baseline 22, normal range 14-94, not significant): 98 U/L | aspartate aminotransferase (AST) ([2]; 18 h postinfusion, baseline 39, normal range 31-108, p < 0.05): 186 U/L | creatinine ([2]; 3 days postinfusion, baseline 0.60): 0.63 mg/dL | alanine aminotransferase (ALT) [2, 6]: 89 U/L | urea nitrogen [2, 6]: 29 mg/dL | aspartate aminotransferase (AST) ([2]; 3 days postinfusion, baseline 39): 101 U/L | lactate dehydrogenase (LDH) ([2]; 3 days postinfusion, baseline 702, normal 514 ± 187): 1,562 U/L | alanine aminotransferase (ALT) [2, 7]: 80 U/L | urea nitrogen [2, 7]: 25 mg/dL | aspartate aminotransferase (AST) ([2]; 4 days postinfusion, baseline 39): 91 U/L | creatinine kinase (CK) ([2]; 4 days postinfusion, baseline 367): 1,740 U/L | lactate dehydrogenase (LDH) ([2]; 4 days postinfusion, baseline 702): 1,323 U/L | creatinine ([2]; peak, 18 h postinfusion, baseline 0.60, normal range 0.5-1.2): 0.77 mg/dL | urea nitrogen ([2]; peak, 18 h postinfusion, baseline 22, normal range 8-25): 35 mg/dL | creatinine kinase (CK) ([2]; peak, 18 h postinfusion, baseline 367, normal range 132-505, p < 0.05): 7,445 U/L | CD8+ T cells in blood ([3]; 12 h postinfusion, p < 0.05): 204 cells/μl | CD4+ T cells in blood ([3]; 12 h postinfusion, p < 0.05): 402 cells/μl | neutrophils in blood ([3]; 12 h postinfusion, baseline 3,273, normal 6.2 ± 2.4 × 10^3, not significant): 14,287 cells/μl | total circulating lymphocytes ([3]; 12 h postinfusion, p < 0.05): 1,463 cells/μl | CD8+ T cells in blood ([3]; 1 day postinfusion, p < 0.05): 178 cells/μl | CD4+ T cells in blood ([3]; 1 day postinfusion, p < 0.05): 496 cells/µl | neutrophils in blood ([3]; 1 day postinfusion, baseline 3,273): 9,123 cell/µl | CD8+ T cells in blood ([3]; 2 days postinfusion, p < 0.05): 204 cells/μl | CD4+ T cells in blood ([3]; 2 days postinfusion, p < 0.05): 366 cells/μl | total circulating lymphocytes ([3]; 2 days postinfusion, p < 0.05): 1,753 cells/μl | CD4+ T cells in blood ([3]; 5 days postinfusion (recovery)): 1,305 cells/μl | CD8+ T cells in blood ([3]; 5 days postinfusion): 634 cells/μl | neutrophils in blood ([3]; 5 days postinfusion, baseline 3,273): 2,427 cells/μl | CD8+ T cells in blood ([3]; 7 days postinfusion (near full recovery)): 741 cells/μl | B cells (CD3−CD20+) in blood ([3]; RMD treated RMs, no change in saline control group): declined | frequency of apoptotic CD8+ T cells ([4]; 2 days postinfusion, baseline 2.1%, Annexin V and Live/Dead): 4.6% | frequency of apoptotic CD4+ T cells ([4]; after RMD administration, baseline 3.7%, Annexin V and Live/Dead): 1.8% | expression of T cell activation markers CD69 and Ki-67 on circulating CD4+ and CD8+ T cells ([4]; by 1 day postinfusion, not significant): increased | AUC of CSF/plasma [5]: 2%
